According to US11248234B2, “Herbicide-resistant hydroxyphenylpyruvate dioxygenases” (BASF SE, priority 2015, dated 2022):

How the values were obtained:
[1] = target: Scenedesmus HPPD (Seq ID: 2) (Tetradesmus obliquus, UniProt A0A383WMN4, N195D); test: In vitro HPPD activity assay; format: biochemical
Protocol: (§1) HPPD produces homogentisic acid and CO2 from 4-hydroxyphenylpyruvate (4-HPP) and O2. The activity assay for HPPD is based on the analysis of homogentisic acid by reversed phase HPLC.
(§2) The assay mixture can contain 150 mM potassium phosphate buffer pH 7.0, 50 mM L-ascorbic acid, 100 μM Catalase (Sigma-Aldrich), 1 μM FeSO4 and 0.2 units of purified mutated HPPD enzyme in a total volume of 505 μl. 1 unit is defined as the amount of enzyme that is required to produce 1 nmol of HGA per minute at 20° C.
(§3) After a preincubation of 30 min the reaction is started by adding 4-HPP to a final concentration of 0.05 mM. The reaction is allowed to proceed for 45 min at room temperature. The reaction is stopped by the addition of 50 μl of 4.5 M phosphoric acid. The sample is filtered using a […] pore size PVDF filtration device.
(§4) 5 μl of the cleared sample is analyzed on an UPLC HSS T3 column (particle size 1.8 μm, dimensions 2.1×50 mm; Waters) by isocratic elution using 90% 20 mM NaH2PO4 pH 2.2, 10% methanol (v/v).
(§5) HGA is detected electrochemically at 750 mV (mode: DC; polarity: positive) and quantified by integrating peak areas (Empower software; Waters).
(§6) Inhibitors are dissolved in DMSO (dimethylsulfoxide) to a concentration of 0.5 mM. From this stock solution serial five-fold dilutions are prepared in DMSO, which are used in the assay. The respective inhibitor solution accounts for 1% of the assay volume. Thus, final inhibitor concentrations range from 5 μM to 320 pM, respectively. Activities are normalized by setting the uninhibited enzyme activity to 100%. IC50 values are calculated using non-linear regression.
(§7) Using methods which are described in the above examples or well known in the art, purified, recombinant mutated HPPD enzymes are characterized with respect to their kinetic properties and sensitivity towards HPPD inhibiting herbicides. Apparent michaelis constants (Km) and maximal reaction velocities (Vmax) are calculated by non-linear regression with the software GraphPad Prism 5 (GraphPad Software, La Jolla, USA) using a substrate inhibition model. Apparent kcat values are calculated from Vmax assuming 100% purity of the enzyme preparation. Weighted means (by standard error) of Km and IC50 values are calculated from at least three independent experiments. The Cheng-Prusoff equation for competitive inhibition (Cheng, Y. C.; Prusoff, W. H. Biochem Pharmacol 1973, 22, 3099-3108) is used to calculate dissociation constants (Ki).
(§8) Field performance of the HPPD enzyme, which is used as a herbicide tolerance trait may depend not only on its lack of sensitivity towards HPPD inhibiting herbicides but also on its activity. To assess the potential performance of a herbicide tolerance trait a tolerance index (TI) is calculated using the following formula: […]
(§9) Easy comparison and ranking of each trait is enabled by normalizing tolerance indexes on Arabidopsis wild-type HPPD.

[2] = target: Scenedesmus Short HPPD (Seq ID: 4) (Tetradesmus obliquus, UniProt A0A383WMN4, DEL398-433/N195D); test: In vitro HPPD activity assay; format: biochemical
Protocol: as §1, §2, §3, §4, §5, §6, §7, §8, §9

[3] = target: T1, Arabidopsis HPPD (Seq ID: 42) (Arabidopsis thaliana, UniProt P93836); test: In vitro HPPD activity assay (homogentisic acid by HPLC); format: biochemical
T1 construct: His6; made in house; host or cells: E. coli BL21 (DE3)
T1 sequence (P93836 1-445): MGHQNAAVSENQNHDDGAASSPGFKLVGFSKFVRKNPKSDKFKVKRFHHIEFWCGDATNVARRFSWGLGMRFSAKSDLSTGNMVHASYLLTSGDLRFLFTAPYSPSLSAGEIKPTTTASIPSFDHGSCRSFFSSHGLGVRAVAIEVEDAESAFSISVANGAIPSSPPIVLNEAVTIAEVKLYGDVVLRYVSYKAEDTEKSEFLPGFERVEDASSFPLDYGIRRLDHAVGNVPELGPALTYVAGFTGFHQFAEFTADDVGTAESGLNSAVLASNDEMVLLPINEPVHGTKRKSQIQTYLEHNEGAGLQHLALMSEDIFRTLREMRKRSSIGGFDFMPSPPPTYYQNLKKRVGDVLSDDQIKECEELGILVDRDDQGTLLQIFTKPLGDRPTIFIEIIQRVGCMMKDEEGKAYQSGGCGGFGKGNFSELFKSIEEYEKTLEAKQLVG
Protocol: as §1, §2, §3, §4, §5
as §6, with “Thus, final inhibitor concentrations range from 5 μM to 320 pM, respectively.” left out
as §7, with “Apparent kcat values are calculated from Vmax assuming 100% purity of the enzyme preparation.” left out, “experiments.” for “experiments. The Cheng-Prusoff equation for competitive inhibition (Cheng, Y. C.; Prusoff, W. H. Biochem Pharmacol 1973, 22, 3099-3108) is used to calculate dissociation constants (Ki).”
as §8, §9

[4] = tested on: WT (non-transgenic control) Arabidopsis plants; test: Greenhouse spray test, injury evaluation; format: in vivo, Arabidopsis thaliana; conditions: 14 DAT
Protocol: (§10) Non-transgenic control plants were treated in parallel and pictures taken 14 days after treatment.
(§11) For post emergence treatment, the test plants are first grown to a height of 3 to 15 cm, depending on the plant habit, and only then treated with the herbicides. For this purpose, the test plants are either sown directly and grown in the same containers, or they are first grown separately and transplanted into the test containers a few days prior to treatment.
(§12) Additionally, T1 and T2 transgenic Arabidopsis plants can be tested for improved tolerance to HPPD-inhibiting herbicides in greenhouse studies. Herbicide injury scoring is done 2-3 weeks after treatment and is rated on a scale of 0 to 100%, 0% being no injury and 100% being complete death.
(§13) Transgenic T2 Arabidopsis plants were sprayed with a range of doses from 1.56-25 g/ha of different HPPD-inhibiting herbicides and injury evaluations were taken two weeks after treatment (FIG. 4). As depicted in Table 8, control plants were severely injured by all doses of herbicides applied, with at least 58% of leaf material being damaged at the lowest application rate and 100% leaf damage at the second application rate.

[5] = tested on: transgenic Arabidopsis plants (T2) SoHPPD F363I (short); test: Greenhouse spray test, injury evaluation; format: in vivo, Arabidopsis thaliana; conditions: for Injury: 14 DAT; for average damage: highest application rate, average of events
Protocol: as §10, §11, §12, §13

[6] = tested on: transgenic Arabidopsis plants (T2) SoHPPD I419V (short); test: Greenhouse spray test, injury evaluation; format: in vivo, Arabidopsis thaliana; conditions: 14 DAT
Protocol: as §10, §11, §12, §13

[7] = tested on: transgenic Arabidopsis plants (T2) SoHPPD Q317H (short); test: Greenhouse spray test, injury evaluation; format: in vivo, Arabidopsis thaliana; conditions: 14 DAT
Protocol: as §10, §11, §12, §13

[8] = apparent michaelis constant, substrate inhibition model, read-out: Km (4-HPP)
[9] = apparent, from Vmax assuming 100% purity

Sequence of Scenedesmus HPPD (Seq ID: 2) (A0A383WMN4 entry or part of it N195D): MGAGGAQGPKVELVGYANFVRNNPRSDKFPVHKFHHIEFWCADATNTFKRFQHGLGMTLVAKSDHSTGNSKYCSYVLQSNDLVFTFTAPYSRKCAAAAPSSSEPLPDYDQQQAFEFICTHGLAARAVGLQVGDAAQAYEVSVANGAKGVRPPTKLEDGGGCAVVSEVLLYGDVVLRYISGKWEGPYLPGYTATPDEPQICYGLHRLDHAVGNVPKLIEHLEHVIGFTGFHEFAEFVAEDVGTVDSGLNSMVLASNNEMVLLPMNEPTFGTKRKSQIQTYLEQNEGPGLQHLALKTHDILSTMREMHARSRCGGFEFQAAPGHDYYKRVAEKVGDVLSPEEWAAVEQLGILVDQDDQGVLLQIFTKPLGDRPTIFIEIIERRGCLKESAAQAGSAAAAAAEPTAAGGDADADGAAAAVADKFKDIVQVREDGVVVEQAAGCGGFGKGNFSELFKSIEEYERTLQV
Sequence of Scenedesmus Short HPPD (Seq ID: 4) (A0A383WMN4 entry or part of it N195D/DEL398-433): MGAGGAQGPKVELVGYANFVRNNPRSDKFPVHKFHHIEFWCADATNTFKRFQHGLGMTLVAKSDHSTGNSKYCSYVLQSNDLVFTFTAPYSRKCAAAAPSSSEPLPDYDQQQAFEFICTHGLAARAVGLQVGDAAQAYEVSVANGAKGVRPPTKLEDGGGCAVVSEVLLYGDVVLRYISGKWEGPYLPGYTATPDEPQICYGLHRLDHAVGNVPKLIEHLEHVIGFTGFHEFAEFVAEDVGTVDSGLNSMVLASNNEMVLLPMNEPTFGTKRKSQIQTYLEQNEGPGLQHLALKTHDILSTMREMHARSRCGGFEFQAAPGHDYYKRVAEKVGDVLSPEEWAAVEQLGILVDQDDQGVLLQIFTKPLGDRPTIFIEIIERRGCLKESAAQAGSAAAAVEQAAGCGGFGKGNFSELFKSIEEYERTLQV

| SMILES | Injury ([4]; 1.56 g ai/ha) [%] | Injury ([4]; 6.25 g ai/ha) [%] | Injury ([4]; 25 g ai/ha) [%] | Injury ([5]; Event B, 1.56 g ai/ha) [%] | Injury ([5]; Event B, 6.25 g ai/ha) [%] | Injury ([5]; Event B, 25 g ai/ha) [%] | Injury ([5]; Event C, 1.56 g ai/ha) [%] | Injury ([5]; Event C, 6.25 g ai/ha) [%] | Injury ([5]; Event C, 25 g ai/ha) [%] | average damage [5] | Injury ([6]; Event G, 1.56 g ai/ha) [%] | Injury ([6]; Event G, 6.25 g ai/ha) [%] | Injury ([6]; Event G, 25 g ai/ha) [%] | Injury ([6]; Event H, 1.56 g ai/ha) [%] | Injury ([6]; Event H, 6.25 g ai/ha) [%] | Injury ([6]; Event H, 25 g ai/ha) [%] | Injury ([7]; Event B, 1.56 g ai/ha) [%] | Injury ([7]; Event B, 6.25 g ai/ha) [%] | Injury ([7]; Event B, 25 g ai/ha) [%] | Injury ([7]; Event C, 1.56 g ai/ha) [%] | also measured |
| --- | --- | --- | --- | --- | --- | --- | --- | --- | --- | --- | --- | --- | --- | --- | --- | --- | --- | --- | --- | --- | --- |
| CN(c1c(Cl)ccc(C2=C(O)c3ncccc3C(C)(C)S2(=O)=O)c1Cl)S(C)(=O)=O [Inhibitor 3, N-[2,6-dichloro-3-(8-hydroxy-5,5-dimethyl-6,6-dioxo-thiopyrano[4,3-b]pyridin-7-yl)phenyl]-N-methyl-methanesulfonamide] |  |  |  |  |  |  |  |  |  |  |  |  |  |  |  |  |  |  |  |  | Ki [1]: 110 nM; Ki [2]: 580 nM |
| O=C(O)C(=O)Cc1ccc(O)cc1 [Inhibitor 4-HPP, 4-hydroxyphenylpyruvate] |  |  |  |  |  |  |  |  |  |  |  |  |  |  |  |  |  |  |  |  | Km [3, 8]: 13 µM; kcat [3, 9]: 12.9 s⁻¹; Km [1, 8]: 160 µM; kcat [1, 9]: 6 s⁻¹; Km [2, 8]: 89 µM; kcat [2, 9]: 17 s⁻¹ |
| CSc1c(Cl)cc(F)c(C(=O)Nc2nnnn2C)c1Cl [Inhibitor 7, 2,4-dichloro-6-fluoro-3-methylsulfanyl-N-(1-methyltetrazol-5-yl)benzamide] | 88 | 100 | 100 | 0 | 5 | 0 | 0 | 0 | 0 | no damage | 0 | 28 | 40 | 5 | 53 | 93 | 0 | 18 | 78 | 0 | Injury ([7]; Event C, 6.25 g ai/ha): 8%; Injury ([7]; Event C, 25 g ai/ha): 73% |
| CSc1c(C(F)(F)F)ccc(C(=O)Nc2nnnn2C)c1Cl [Inhibitor 11, 2-chloro-3-methylsulfanyl-N-(1-methyltetrazol-5-yl)-4-(trifluoromethyl)benzamide] | 100 | 100 | 100 | 0 | 0 | 15 | 8 | 0 | 5 | 10% | 58 | 83 | 100 | 43 | 100 | 100 | 40 | 99 | 100 | 15 | Injury ([7]; Event C, 6.25 g ai/ha): 79%; Injury ([7]; Event C, 25 g ai/ha): 100% |
